Measurements reported in patent US8889712B2, “IAP antagonists” (Bristol-Myers Squibb Company, priority 2012, dated 2014).
pIC50: −log10 of the molar value. Where two headings read alike, the source gives them in different places.

Experiments:
XIAP BIR3 = target: T1, XIAP BIR3 (Homo sapiens, UniProt P98170); test: XIAP-BIR3/SMAC Homogeneous Time Resolved Fluorescence (HTRF) Assay; assay type: binding
T1 construct: His-BIR3 (241-356, XIAP)
Method: A. XIAP-BIR3/SMAC Homogeneous Time Resolved Fluorescence (HTRF) Assay Assays were performed in black, flat-bottom, 384-well plates. […] The reaction was incubated at room temperature for 60 minutes, following which 10 μl of mouse anti-6×His-terbium labeled Fab (Medarex, Cis-bio) was added to the reaction (40 μl) for an additional 30 minute incubation. […] Compounds were dissolved at 3 mM in dimethylsulfoxide (DMSO) and evaluated at eleven serially diluted concentrations. IC50 and Ki values were derived by non-linear regression analysis.

XIAP BIR2-3 = target: T2, XIAP BIR2-3 (Homo sapiens, UniProt P98170, C202A/C213G); test: XIAP-BIR2-3 dimeric SMAC Peptide Homogeneous Time Resolved Fluorescence (HTRF) Assay; assay type: binding
T2 construct: His-BIR2-3 (125-356, C202A/C213G, XIAP)
Method: B. […] Assays were performed in black, flat-bottom, 384-well plates. […] Compounds were dissolved at 3 mM in dimethylsulfoxide (DMSO) and evaluated at eleven serially diluted concentrations. IC50 and Ki values were derived by non-linear regression analysis.

[1] = 1 nM N-His-BIR3 (241-356, XIAP), 5 nM fluorescein labeled SMAC peptide, HTRF signal, read-out: XIAP BIR3 IC50
[2] = 0.5 nM N-His-BIR2-3 (125-356, C202A/C213G, XIAP), 20 nM fluorescein labeled dimeric SMAC peptide, HTRF signal, read-out: XIAP BIR2-3 IC50

T1 sequence (P98170 241-356): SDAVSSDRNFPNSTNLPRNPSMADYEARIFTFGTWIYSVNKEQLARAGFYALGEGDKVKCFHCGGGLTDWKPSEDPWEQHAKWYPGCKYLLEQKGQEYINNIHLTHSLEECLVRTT
T2 sequence (P98170 125-356 C202A/C213G): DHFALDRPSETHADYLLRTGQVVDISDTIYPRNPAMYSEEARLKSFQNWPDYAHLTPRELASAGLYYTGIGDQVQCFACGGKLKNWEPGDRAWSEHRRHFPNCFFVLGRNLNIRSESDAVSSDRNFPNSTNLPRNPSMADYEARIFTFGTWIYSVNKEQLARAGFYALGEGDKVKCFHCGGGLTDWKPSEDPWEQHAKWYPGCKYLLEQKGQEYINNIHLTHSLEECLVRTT

pIC50 (XIAP BIR3; [1]) | pIC50 (XIAP BIR2-3; [2]) | SMILES | pIC50 (XIAP BIR3) | pIC50 (XIAP BIR2-3)
8.05 | 8.66 | CN[C@@H](C)C(=O)N[C@H](C(=O)N1CC(c2ccc3c(c2)CN(C(=O)[C@@H](NC(=O)[C@H](C)NC)C(C)(C)C)[C@H](C(=O)NC2CCCc4ccccc42)C3)C[C@H]1C(=O)NC(Cc1ccccc1)C(=O)NCc1ccc(OC)cc1)C(C)(C)C (stereo in doubt) [Example 70, (S)-2-((S)-3,3-Dimethyl-2-((S)-2-(methylamino)propanamido)butanoyl)-7-((3S,5S)-1-((S)-3,3-dimethyl-2-((S)-2-(methylamino)propanamido)butanoyl)-5-(((S)-1-((4-methoxybenzyl)amino)-1-oxo-3-phenylpropan-2-yl)carbamoyl)pyrrolidin-3-yl)-N-((R)-1,2,3,4-tetrahydronaphthalen-1-yl)-1,2,3,4-tetrahydroisoquinoline-3-carboxamide] | – | –
8.25 | 8.82 | CN[C@@H](C)C(=O)N[C@H](C(=O)N1CC(c2ccc3c(c2)CN(C(=O)[C@@H](NC(=O)[C@H](C)NC)C(C)(C)C)[C@H](C(=O)NC2CCCc4ccccc42)C3)C[C@H]1C(=O)NC(Cc1ccccc1)C(=O)Nc1ccc(F)cc1)C(C)(C)C (stereo in doubt) [Example 71, (S)-2-((S)-3,3-Dimethyl-2-((S)-2-(methylamino)propanamido)butanoyl)-7-((3S,5S)-1-((S)-3,3-dimethyl-2-((S)-2-(methylamino)propanamido)butanoyl)-5-(((S)-1-((4-fluorophenyl)amino)-1-oxo-3-phenylpropan-2-yl)carbamoyl)pyrrolidin-3-yl)-N-((R)-1,2,3,4-tetrahydronaphthalen-1-yl)-1,2,3,4-tetrahydroisoquinoline-3-carboxamide] | – | –
7.87 | 8.59 | CN[C@@H](C)C(=O)N[C@H](C(=O)N1Cc2cc(C3C[C@@H](C(=O)N[C@H](CO)Cc4ccccc4)N(C(=O)[C@@H](NC(=O)[C@H](C)NC)C(C)(C)C)C3)ccc2C[C@H]1C(=O)NC1CCCc2ccccc21)C(C)(C)C (stereo in doubt) [Example 74, (S)-2-((S)-3,3-Dimethyl-2-((S)-2-(methylamino)propanamido)butanoyl)-7-((3S,5S)-1-((S)-3,3-dimethyl-2-((S)-2-(methylamino)propanamido)butanoyl)-5-(((S)-1-hydroxy-3-phenylpropan-2-yl)carbamoyl)pyrrolidin-3-yl)-N-((R)-1,2,3,4-tetrahydronaphthalen-1-yl)-1,2,3,4-tetrahydroisoquinoline-3-carboxamide] | – | –
– | – | CN[C@@H](C)C(=O)N[C@H](C(=O)N1Cc2cc(C(=O)N[C@H]3C[C@@H](C(=O)N[C@@H]4CCCc5ccccc54)N(C(=O)[C@@H](NC(=O)[C@H](C)NC)C(C)(C)C)C3)ccc2C[C@H]1C(=O)N[C@@H]1CCCc2ccccc21)C(C)(C)C [Example 1, (S)-2-((S)-3,3-Dimethyl-2-((S)-2-(methylamino)propanamido)butanoyl)-N^7-((3S,5S)-1-((S)-3,3-dimethyl-2-((S)-2-(methylamino)propanamido)butanoyl)-5-(((R)-1,2,3,4-tetrahydronaphthalen-1-yl)carbamoyl)pyrrolidin-3-yl)-N^3—((R)-1,2,3,4-tetrahydronaphthalen-1-yl)-1,2,3,4-tetrahydroisoquinoline-3,7-dicarboxamide] | 7.96 | 8.52
8.05 | 8.22 | CCN[C@@H](C)C(=O)N[C@H](C(=O)N1Cc2cc(C(=O)N[C@H]3C[C@@H](C(=O)NC4CCCc5ccccc54)N(C(=O)[C@@H](NC(=O)[C@H](C)NC)C(C)(C)C)C3)ccc2C[C@H]1C(=O)NC1CCCc2ccccc21)C(C)(C)C (stereo partly drawn) [Example 2] | – | –
8.22 | 8.52 | CC[C@H](NC)C(=O)N[C@H](C(=O)N1Cc2cc(C(=O)N[C@H]3C[C@@H](C(=O)N[C@@H]4CCCc5ccccc54)N(C(=O)[C@@H](NC(=O)[C@H](C)NC)C(C)(C)C)C3)ccc2C[C@H]1C(=O)N[C@@H]1CCCc2ccccc21)C(C)(C)C [Example 3, (S)-2-((S)-3,3-Dimethyl-2-((S)-2-(methylamino)butanamido)butanoyl)-N^7-((3S,5S)-1-((S)-3,3-dimethyl-2-((S)-2-(methylamino)propanamido)butanoyl)-5-(((R)-1,2,3,4-tetrahydronaphthalen-1-yl)carbamoyl)pyrrolidin-3-yl)-N^3-((R)-1,2,3,4-tetrahydronaphthalen-1-yl)-1,2,3,4-tetrahydroisoquinoline-3,7-dicarboxamide] | – | –
8.00 | 7.96 | CN[C@@H](C)C(=O)N[C@H](C(=O)N1C[C@@H](NC(=O)c2ccc3c(c2)CN(C(=O)[C@@H](NC(=O)[C@@H](NC)C(C)C)C(C)(C)C)[C@H](C(=O)N[C@@H]2CCCc4ccccc42)C3)C[C@H]1C(=O)N[C@@H]1CCCc2ccccc21)C(C)(C)C [Example 4, (S)-N^7-((3S,5S)-1-((S)-3,3-Dimethyl-2-((S)-2-(methylamino)propanamido)butanoyl)-5-(((R)-1,2,3,4-tetrahydronaphthalen-1-yl)carbamoyl)pyrrolidin-3-yl)-2-((S)-3,3-dimethyl-2-((S)-3-methyl-2-(methylamino)butanamido)butanoyl)-N^3-((R)-1,2,3,4-tetrahydronaphthalen-1-yl)-1,2,3,4-tetrahydroisoquinoline-3,7-dicarboxamide] | – | –
7.85 | 7.89 | CN[C@@H](C)C(=O)N[C@H](C(=O)N1C[C@@H](NC(=O)c2ccc3c(c2)CN(C(=O)[C@@H](NC(=O)[C@@H](NC)C2CC2)C(C)(C)C)[C@H](C(=O)N[C@@H]2CCCc4ccccc42)C3)C[C@H]1C(=O)N[C@@H]1CCCc2ccccc21)C(C)(C)C [Example 5, (S)-2-((S)-2-((S)-2-Cyclopropyl-2-(methylamino)acetamido)-3,3-dimethylbutanoyl)-N^7-((3S,5S)-1-((S)-3,3-dimethyl-2-((S)-2-(methylamino)propanamido)butanoyl)-5-(((R)-1,2,3,4-tetrahydronaphthalen-1-yl)carbamoyl)pyrrolidin-3-yl)-N^3-((R)-1,2,3,4-tetrahydronaphthalen-1-yl)-1,2,3,4-tetrahydroisoquinoline-3,7-dicarboxamide] | – | –

SMILES | pIC50 (XIAP BIR3; [1]) | pIC50 (XIAP BIR2-3; [2]) | pIC50 (XIAP BIR3) | pIC50 (XIAP BIR2-3)
CN[C@@H](C)C(=O)N[C@H](C(=O)N1CC(c2ccc3c(c2)CN(C(=O)[C@@H](NC(=O)[C@H](C)NC)C(C)(C)C)[C@H](C(=O)NC2CCCc4ccccc42)C3)C[C@H]1C(=O)NC(Cc1ccccc1)C(=O)N(C)Cc1ccccc1)C(C)(C)C (stereo in doubt) [Example 72, (S)-7-((3S,5S)-5-(((S)-1-(Benzyl(methyl)amino)-1-oxo-3-phenylpropan-2-yl)carbamoyl)-1-((S)-3,3-dimethyl-2-((S)-2-(methylamino)propanamido)butanoyl)pyrrolidin-3-yl)-2-((S)-3,3-dimethyl-2-((S)-2-(methylamino)propanamido)butanoyl)-N-((R)-1,2,3,4-tetrahydronaphthalen-1-yl)-1,2,3,4-tetrahydroisoquinoline-3-carboxamide] | 7.78 | 8.48 | – | –
